From patent publication US20090105263A1, “HETEROBICYCLIC COMPOUNDS AS GLUCOKINASE ACTIVATORS” (priority 2005, published 2009)

Biological target: T1, recombinant human pancreatic GLK (Homo sapiens, UniProt P35557)
T1 sequence (P35557 1-465): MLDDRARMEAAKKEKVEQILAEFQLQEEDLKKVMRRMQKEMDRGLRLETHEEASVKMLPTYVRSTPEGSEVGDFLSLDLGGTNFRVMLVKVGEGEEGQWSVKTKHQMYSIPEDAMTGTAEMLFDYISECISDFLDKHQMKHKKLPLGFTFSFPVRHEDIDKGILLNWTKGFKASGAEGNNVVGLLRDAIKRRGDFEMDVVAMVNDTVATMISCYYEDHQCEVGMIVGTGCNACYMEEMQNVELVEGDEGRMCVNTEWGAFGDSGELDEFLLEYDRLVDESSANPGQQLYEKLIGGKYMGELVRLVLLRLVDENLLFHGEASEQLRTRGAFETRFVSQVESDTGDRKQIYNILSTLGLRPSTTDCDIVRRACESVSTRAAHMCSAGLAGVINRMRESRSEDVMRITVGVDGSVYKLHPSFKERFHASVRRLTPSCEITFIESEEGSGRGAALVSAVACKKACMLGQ
Experiment: biochemical

COC[C@H](C)Oc1cc(OCc2ccccc2)cc(-c2cc3cccnc3[nH]2)c1 [Example 1, 2-[3-(Benzyloxy)-5-[(1S)-2-methoxy-1-methylethoxy]phenyl]-1H-pyrrolo[2,3-b]pyridine]
EC50: 0.12 µM
